According to PubChem BioAssay (NCI):
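Growth conditions: 96-well plates. Treatment: test compound, 48 hours, 5 concentrations. Analysis: linear interpolation between bracketing concentrations; unreached endpoints set to highest concentration. GI50 = concentration required for 50% inhibition of growth. TGI: total growth inhibition.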

Tests used:
Experiment in all cases: inhibition of tumour cell growth, NCI panel, 48 h
[1] = test system: HCT-15 colon
[2] = test system: NCI/ADR-RES ovarian
[3] = test system: MALME-3M melanoma
[4] = test system: SF-539 CNS
[5] = test system: HOP-62 NSCLC
[6] = test system: CCRF-CEM leukemia
[7] = test system: MOLT-4 leukemia
[8] = test system: UACC-257 melanoma
[9] = test system: PC-3 prostate
[10] = test system: K-562 leukemia
[11] = test system: COLO 205 colon
[12] = test system: NCI-H23 lung
[13] = test system: HOP-92 NSCLC
[14] = test system: SNB-75 CNS
[15] = test system: SR leukemia
[16] = test system: SF-268 CNS
[17] = test system: SN12C renal
[18] = test system: KM12 colon
[19] = test system: SK-MEL-5 melanoma
[20] = test system: T-47D breast
[21] = test system: ACHN renal
[22] = test system: HS 578T breast
[23] = test system: NCI-H522 lung
[24] = test system: DU-145 prostate
[25] = test system: MCF7 breast
[26] = test system: MDA-MB-435
[27] = test system: OVCAR-3 ovarian
[28] = test system: HT29 colon
[29] = test system: NCI-H460 lung
[30] = test system: SK-OV-3 ovarian
[31] = test system: UO-31 renal
[32] = test system: SNB-19 CNS
[33] = test system: RPMI-8226 leukemia
[34] = test system: EKVX NSCLC
[35] = test system: M14 melanoma
[36] = test system: U251 CNS
[37] = test system: MDA-MB-231 breast
[38] = test system: SK-MEL-2 melanoma
[39] = test system: SK-MEL-28 melanoma
[40] = test system: UACC-62 melanoma
[41] = test system: CAKI-1 renal
[42] = test system: TK-10 renal
[43] = test system: OVCAR-5 ovarian
[44] = test system: A549 NSCLC
[45] = test system: HCC-2998 colon
[46] = test system: 786-0 renal
[47] = test system: OVCAR-8 ovarian
[48] = test system: A498 renal
[49] = test system: RXF 393 renal
[50] = test system: HCT-116 colon
[51] = test system: SW-620 colon
[52] = test system: BT-549 breast

COc1cc(/C=C/C(=O)c2ccc(SC)cc2)cc(OC)c1OC
GI50 [1]: 3.6 µM | TGI [1]: 14.4 µM | GI50 [2]: 4.68 µM | TGI [2]: 26.4 µM | GI50 [3]: 6.31 µM | TGI [3]: 26.1 µM | GI50 [4]: 11.7 µM | TGI [4]: 27.2 µM | GI50 [5]: 14.7 µM | TGI [5]: 29.5 µM | GI50 [6]: 3.37 µM | TGI [6]: 21.1 µM | GI50 [7]: 3.14 µM | TGI [7]: 8.65 µM | GI50 [8]: 5.45 µM | TGI [8]: 18.1 µM | GI50 [9]: 14.2 µM | TGI [9]: 95.3 µM | GI50 [10]: 3.2 µM | TGI [10]: 16.4 µM | GI50 [11]: 13.3 µM | TGI [11]: 31.5 µM | GI50 [12]: 10 µM | TGI [12]: 23.5 µM | GI50 [13]: 32.9 µM | TGI [13]: > 100 µM | GI50 [14]: 6.08 µM | TGI [14]: 20.5 µM | GI50 [15]: 3.56 µM | TGI [15]: > 100 µM | GI50 [16]: 16 µM | TGI [16]: 37.8 µM | GI50 [17]: 3.17 µM | TGI [17]: 8.98 µM | GI50 [18]: 13.3 µM | TGI [18]: 29.1 µM | GI50 [19]: 12 µM | TGI [19]: 24.5 µM | GI50 [20]: 9.68 µM | TGI [20]: 62.9 µM | GI50 [21]: 6.98 µM | TGI [21]: 19.5 µM | GI50 [22]: 12.3 µM | TGI [22]: 37 µM | GI50 [23]: 8.82 µM | TGI [23]: 23.8 µM | GI50 [24]: 12.8 µM | TGI [24]: 26.4 µM | GI50 [25]: 5.22 µM | TGI [25]: 24.1 µM | GI50 [26]: 12.4 µM | TGI [26]: 25.8 µM | GI50 [27]: 10.9 µM | TGI [27]: 23.8 µM | GI50 [28]: 4.15 µM | TGI [28]: 24.4 µM | GI50 [29]: 15 µM | TGI [29]: 32.6 µM | GI50 [30]: 15.8 µM | TGI [30]: 30.6 µM | GI50 [31]: 10.8 µM | TGI [31]: 23 µM | GI50 [32]: 12.6 µM | TGI [32]: 26.4 µM | GI50 [33]: 3.9 µM | TGI [33]: > 100 µM | GI50 [34]: 14.9 µM | TGI [34]: 29.4 µM | GI50 [35]: 10.5 µM | TGI [35]: 22.4 µM | GI50 [36]: 3.27 µM | TGI [36]: 12 µM | GI50 [37]: 4.46 µM | TGI [37]: 17.2 µM | GI50 [38]: 17 µM | TGI [38]: 31.6 µM | GI50 [39]: 16.9 µM | TGI [39]: 32.5 µM | GI50 [40]: 3.46 µM | TGI [40]: 13.5 µM | GI50 [41]: 16.1 µM | TGI [41]: 32.2 µM | GI50 [42]: 18 µM | TGI [42]: 33.5 µM | GI50 [43]: 20.6 µM | TGI [43]: 35.6 µM | GI50 [44]: 6.25 µM | TGI [44]: 20.7 µM | GI50 [45]: 18 µM | TGI [45]: 33.2 µM | GI50 [46]: 6.43 µM | TGI [46]: 20.4 µM | GI50 [47]: 2.44 µM | TGI [47]: 5.85 µM | GI50 [48]: 0.936 µM | TGI [48]: 17.1 µM | GI50 [49]: 2.62 µM | TGI [49]: 7.01 µM | GI50 [50]: 3.3 µM | TGI [50]: 13.7 µM | GI50 [51]: 6.89 µM | TGI [51]: 21.6 µM | GI50 [52]: 10.1 µM | TGI [52]: 24.6 µM
